From patent US4567162A, “Biologically active heptapeptides” (Farmitalia Carlo Erba, priority 1983, dated 1986)
Counter-ions that a name gives are not always drawn. Ends that are not written are not given here. Peptide text beside a SMILES is read from it.

What was measured:
[1] = tested on: protein synthesis of liver tissue; assay: In vivo-in vitro test: protein synthesis rate of liver tissue (14C amino acid incorporation in microsomal cell juice); set-up: species or system male rats (Wistar); details: 4 weeks; for Δ % control rat group treated: versus treated (physiological sodium chloride s.c.) control group; for Δ % control rat group untreated: versus untreated control group; for Protein synthesis rates compared with the two control groups: male rats, daily s.c.
Description: De-protecting reactions are carried out according to methods known per se in polypeptide chemistry. Peptides wherein Y represents OR are prepared, for example, starting from the C-terminal amino acid esterified by the appropriate alcohol. Peptides wherein Y represents OH can be prepared, for example, by hydrolysis of peptides wherein Y represents OR. Peptides wherein Y represents NH2, NHR or NR2 can be prepared by ammonolysis of the corresponding esters or starting from a C-terminal amino acid amidated by an appropriate amine. Hydrazido or substituted hydrazido derivatives according to the invention are prepared by condensation of the N-protected peptide or amino acid with a suitably substituted hydrazine, such as benzylcarbazate, t-butylcarbazate, adamantylcarbazate, phenylhydrazine or adamantylhydrazine, or reacting the N-protected peptide or amino acid hydrazide with a suitable alkylating agent, such as an alkyl chloride, or with a suitable acylating agent such as benzylchloroformate, t-butylchloroformate, di-t-butyldicarbonate or adamantylfluoroformate. […] The compounds according to the invention show an interesting growth promoting activity in animals determined both by the in vivo-in vitro test system on protein synthesis of liver tissue (as described by K. Kammerer and A. Dey-Hazra (1980) Vet. Med. Nachr. Nr. 2, 99-112), and by the dose-dependent increase in weight gain and feed efficiency after subcutaneous or oral administration.
The growth tests were carried out for periods of 4 weeks, using groups of 6 male rats (Wistar, Hagemann, Extertal) divided in subgroups of three animals managed in Markolon cages, good shaving as litter.
Water and feed (Altromin 1321 Standard diet containing 19% crude protein): ad libitum.
The peptides of the present invention were administered in solution s.c. daily at doses of 10, 50 and 100 ng/kg, using as diluent normal saline (starting from a stock solution with 100 ng/ml).
Homogenise 3 g liver in 9 ml TKM buffer-saccharose solution, cooled on ice, in a Potter homogeniser at 600 r.p.m. for 2 min.; centrifuge at 4° C. in an ultracentrifuge with 10,000 g for 20 min., decant the supernatant=microsomal cell juice.
After calculation of protein content in the microsomal cell juice by means of the biuret method, the protein concentration was adjusted with TKM buffer to 1 mg/ml. To that, a further dilution with bidistilled water to 0.25 mg protein per ml of the microsomal cell juice followed.
Subsequently portions of 0.15 l ml reaction medium and 0.05 ml (50 mcg) of pyruvate kinase solution, as well as 0.1 ml of ^14 C amino acid mixture (=1 μCi) were added. The volume of the incubation mixture was then 1 ml each.
After a 35 minute incubation at 37° C. in a water bath, protein precipitation was performed by adding 2 ml of trichloracetic acid (10%). The sediment was washed by several additions of trichloroacetic acid and subsequent centrifugation (3600 g/5 min) until the supernatant was free from radioactivity.
The residue was dissolved in 1.0 ml Lumasolve and left overnight at 37° C., until it was clear.
Measuring the preparation was done in a PRIAS liquid scintillation counter PL (1.0 ml+5 ml scintillation liquid).
A detailed method is described in the above cited Kammerer article.

[2] = Growth test in pigs (body weight, feed consumption, feed efficiency); type: in vivo, castrated male pigs (Hybrids)
Description: The growth test was carried out for a period of 3 weeks, using groups of 7 castrated male pigs (Hybrids) divided in subgroups and managed in cages with flat decks. The pigs were fed during the whole experimental period with grower feed (Hoveler, normal type without feed additives), 1 kg per day. Water was given ad libitum. The weights were weekly recorded.

[3] = 50 ng/kg daily injection, 3 weeks
[4] = 50 ng/kg, 3 weeks, versus untreated group 1

For `COC(=O)[C@H](CCSC)NC(=O)[C@H](Cc1c[nH]c2ccccc12)NC(=O)CNC(=O)[C@H](CC(C)C)NC(=O)[C@@H]1CCCN1C(=O)[C@@H]1CCCN1C(=O)[C@@H](N)C(C)C` [Ex. 2 (TK7D), HCl.H-Val-Pro-Pro-Leu-Gly-Trp-Met-OMe] (H-VPPLGWM-OMe), the “Δ % control rat group treated” value ([1]; 10 ng/kg daily s.c.) was “+29.4%”, the “Δ % control rat group untreated” value ([1]; 10 ng/kg daily s.c.) was “+11.9%” and the “Δ % control rat group treated” value ([1]; 50 ng/kg daily s.c.) was “+38.2%”. The “Δ % control rat group untreated” value ([1]; 50 ng/kg daily s.c.) was “+19.4%”, the “Δ % control rat group treated” value ([1]; 100 ng/kg daily s.c.) was “+63.2%” and the “Δ % control rat group untreated” value ([1]; 100 ng/kg daily s.c.) was “+41.0%”. The “Protein synthesis rates compared with the two control groups” value [1] was “significantly different from the two control groups”.
In the case of “VPPLGWM [Ex. 1 (TK7), H-Val-Pro-Pro-Leu-Gly-Trp-Met-OH.HCl]”, the “Δ % control rat group treated” value ([1]; 10 ng/kg daily s.c.) is reported as “+36.1%”, the “Δ % control rat group untreated” value ([1]; 10 ng/kg daily s.c.) is reported as “+17.7%” and the “Δ % control rat group treated” value ([1]; 50 ng/kg daily s.c.) is reported as “+46.0%”. For the same compound, the “Δ % control rat group untreated” value ([1]; 50 ng/kg daily s.c.) was “+26.2%”, the “Δ % control rat group treated” value ([1]; 100 ng/kg daily s.c.) was “+56.5%” and the “Δ % control rat group untreated” value ([1]; 100 ng/kg daily s.c.) was “+35.3%”. The “Protein synthesis rates compared with the two control groups” value [1] was “significantly different from the two control groups”, the “Weight after 1 week” value ([2]; 50 ng/kg daily injection) was 15.2 kg and the “Weight after 2 weeks” value ([2]; 50 ng/kg daily injection) was 17.8 kg. The “Weight after 3 weeks” value ([2]; 50 ng/kg daily injection) was 20.7 kg, the “Weight gain” value [2, 3] was 9.0 kg and the “Weight gain in %” value [2, 3] was 76.9%. For the same compound, the Initial weight ([2]; 50 ng/kg daily injection, baseline) was 11.7 kg, the “Feed efficiency (kg feed/kg weight gain)” value ([2]; 50 ng/kg, 3 weeks) was 2.33 kg feed/kg weight gain and the “Consumption (feed)” value ([2]; 50 ng/kg, 3 weeks, feed 1 kg per day) was 21 kg. The “Feed efficiency Δ % to control group” value [2, 4] was -24.6%, the “Weight gain Δ % to control group” value [2, 4] was “+32.4%” and the “Weight gain (in words)” value ([2]; daily injection) was “clear increase in weight gain”.
